Laboratory results taken from ChEMBL document CHEMBL5329209, “Designing photoaffinity tool compounds for the investigation of the DENV NS2B-NS3 protease allosteric binding pocket” (RSC Med Chem, 2023).

What follows are compounds tested against T1, Genome polyprotein (dengue virus type 2, UniProt P29990) (assay: Binding affinity to N terminal hexa histidine tagged DENV2 NS2B-NS3 protease assessed as apparent Ki by Dixon plot analysis). Conditions: read-out: Ki(app).
T1 sequence (P29990 1346-1475 limits assumed): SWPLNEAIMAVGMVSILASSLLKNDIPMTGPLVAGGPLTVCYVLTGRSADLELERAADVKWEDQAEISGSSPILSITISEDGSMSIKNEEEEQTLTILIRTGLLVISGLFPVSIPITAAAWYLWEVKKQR
T1 sequence (P29990 1476-2093 limits assumed): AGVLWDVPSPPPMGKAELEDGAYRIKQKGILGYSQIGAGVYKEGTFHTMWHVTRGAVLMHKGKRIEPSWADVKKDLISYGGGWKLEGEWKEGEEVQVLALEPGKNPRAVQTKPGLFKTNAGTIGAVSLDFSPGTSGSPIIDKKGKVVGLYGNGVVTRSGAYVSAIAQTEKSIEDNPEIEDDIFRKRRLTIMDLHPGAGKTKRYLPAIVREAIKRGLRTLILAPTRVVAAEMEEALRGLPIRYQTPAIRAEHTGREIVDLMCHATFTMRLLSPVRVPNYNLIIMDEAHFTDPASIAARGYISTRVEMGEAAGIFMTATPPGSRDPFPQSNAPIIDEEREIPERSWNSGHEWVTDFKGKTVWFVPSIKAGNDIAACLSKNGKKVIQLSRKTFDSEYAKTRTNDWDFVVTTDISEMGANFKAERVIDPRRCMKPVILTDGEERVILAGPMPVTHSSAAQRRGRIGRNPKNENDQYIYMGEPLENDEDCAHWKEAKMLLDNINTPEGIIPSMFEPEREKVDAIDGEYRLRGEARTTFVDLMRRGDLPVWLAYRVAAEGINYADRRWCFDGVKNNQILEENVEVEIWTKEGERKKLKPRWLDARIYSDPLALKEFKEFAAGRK
In the case of `O=C(Nc1nc2cc(O)c(O)cc2s1)c1ccc(C2(C(F)(F)F)N=N2)cc1`, the Ki is reported as 6.32 µM.

The compounds below were run against T1, Genome polyprotein (assay: Inhibition of DENV2 NS2B-NS3 protease using Boc-Gly-Arg-Arg-AMC as substrate by fluorometric analysis). Conditions: not given.
`CC1OCCC1SSC[C@@H](NC(=O)c1ccc(C2(C(F)(F)F)N=N2)cc1)C(=O)Nc1nc2cc(O)c(O)cc2s1` (stereo partly specified) showed an IC50 of 20 µM. `O=C(Nc1nc2cc(O)c(O)cc2s1)c1ccc(C2(C(F)(F)F)N=N2)cc1` gave an IC50 of 9.97 µM. `O=C(CN(CC1CC2C=CC1C2)C(=O)c1ccc(C2(C(F)(F)F)N=N2)cc1)Nc1nc2cc(O)c(O)cc2s1` (stereo unspecified) showed an IC50 of 17 µM. With `O=C(N[C@H](CS)C(=O)Nc1nc2cc(O)c(O)cc2s1)c1ccc(C2(C(F)(F)F)N=N2)cc1` the IC50 was 13.4 µM. Work on `CC(C)(C)SSC[C@@H](NC(=O)c1ccc(C2(C(F)(F)F)N=N2)cc1)C(=O)Nc1nc2cc(O)c(O)cc2s1` yielded an IC50 of 10.2 µM.
